# Measurements taken from patent US20050181947A1, “Fungicidal seed treatment agent for oilseed rape” (BASF Agro BV., Amhem (NL)-Wadenswil-Branch, priority 2002, published 2005).
# Assays:
# [1] = system: Brassica napus (winter rape, species Express); assay: Field trial of treated oilseed rape seed: yield; assay type: in vivo; details: seed treatment; independent of the site
# Description: (§1) The seed treated in accordance with the production examples described above was tested in field trials at a sowing rate of 4 kg per hectare. The individual test parameters were evaluated using the methods usually used in practice in each case, such as determining the weight for plant biomass and grading in the event of fungal infestation.
# The yield after a period of vegetation is higher after treatment of the oilseed rape seed with fluquinconazole compared with the untreated control. This effect is independent of the site.
# [2] = system: Fungal infestation of the leaves; assay: Field trial of treated oilseed rape seed: fungal infestation of the leaves (grading); assay type: in vivo, Brassica napus
# Description: as §1
# (§2) The increase in the plant biomass and the suppression of fungal infestation in both the exemplary embodiments of treatment of oilseed rape seed with fluquinconazole is higher compared with the untreated control and compared with the active substance dimethomorph which was co-tested as a reference and is used as the standard treatment agent in oilseed rape for protection against downy mildew.
# [3] = system: Brassica napus (winter rape, species Bristol); assay: Field trial of treated oilseed rape seed: plant biomass (determining the weight); assay type: in vivo; details: for Plant biomass (% - relative to untreated): standard treatment agent, rate not given, winter rape Bristol, untreated = 100
# Description: as §1, §2
# downy mildew = assay: Field trial of treated oilseed rape seed: foliar infestation with downy mildew (grading); assay type: in vivo, Brassica napus; details: 24 days after sowing; standard treatment agent, rate not given; winter rape Bristol; untreated = 15
# Description: as §1, §2
# [4] = seed treatment, both exemplary embodiments
SMILES,Yield after a period of vegetation compared with the untreated control [1],"Suppression of fungal infestation compared with the untreated control and with dimethomorph [2, 4]","Increase in the plant biomass compared with the untreated control and with dimethomorph [3, 4]","Fungal infestation of the leaves (% total infestation) ([2]; 41 days after sowing, standard treatment agent, rate not given, winter rape Bristol, untreated = 30)",Foliar infestation with downy mildew (% total infestation) (downy mildew),Plant biomass (% - relative to untreated) ([3]; 24 days after sowing) [%],Plant biomass (% - relative to untreated) ([3]; 41 days after sowing) [%]
"O=c1c2cc(F)ccc2nc(-n2cncn2)n1-c1ccc(Cl)cc1Cl [fluquinconazole, 3-(2,4-dichlorophenyl)-6-fluoro-2-(1H-1,2,4-triazol-1-yl)-quinazolin-4(3H)-one]",higher,higher,higher,,,,
COc1ccc(C(=CC(=O)N2CCOCC2)c2ccc(Cl)cc2)cc1OC [Dimethomorph],,,,25,5,105,102
